Where “and” joins values, the source holds several entries; their conditions need not be identical. Equal values may be shown once. Records with an inconclusive call do not appear. Where a SMILES comes first, the peptide text is derived from it. Bridges are numbered along the chain shown (N, C = ends).

In the assay the test system is BDF1 mice, colon carcinoma 38 sc, T/C %. The assay is described as follows: NCI In Vivo Anticancer Drug Screen. Data for tumor model Colon Carcinoma 38 (subcutaneous) in B6D2F1 (BDF1) mice. In short, it runs like this:
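Mice with transplanted tumors are treated with compound or vehicle. Survival or tumor size is then measured in both groups. The ratio of treated to control gives the reported figure.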

Where [1] appears, read: endpoint: median tumor weight (est.), dose: 50.0 mg/kg/injection, schedule: Q07DX002 (ip), vehicle: saline, higher = larger tumour.
Setting [2] is: endpoint: median tumor weight (est.), dose: 200.0 mg/kg/injection, schedule: Q07DX002 (ip), vehicle: saline, higher = larger tumour.
Setting [3] is: endpoint: median tumor weight (est.), dose: 25.0 mg/kg/injection, schedule: Q07DX002 (ip), vehicle: Klucel (hydroxypropylcellulose) (HPC), higher = larger tumour.
Setting [4] is: endpoint: median tumor weight (est.), dose: 50.0 mg/kg/injection, schedule: Q07DX002 (ip), vehicle: Klucel (hydroxypropylcellulose) (HPC), higher = larger tumour.
Setting [5] is: endpoint: median tumor weight (est.), dose: 25.0 mg/kg/injection, schedule: Q07DX002 (ip), vehicle: saline, higher = larger tumour.

For `Nc1nc(N)c2c(Cl)c(CNc3ccc(Cl)c(Cl)c3)ccc2n1`, the T/C is 73 % of control and 82 % of control and 88 % of control (endpoint: median tumor weight (est.), dose: 12.5 mg/kg/injection, schedule: Q07DX002 (ip), vehicle: saline with Tween-80, higher = larger tumour); 5 % of control and 19 % of control (endpoint: median tumor weight (est.), dose: 100.0 mg/kg/injection, schedule: Q07DX002 (ip), vehicle: saline with Tween-80, higher = larger tumour).

Turning to `CC1(C)N=C(N)N=C(N)N1c1ccc(CCCCc2ccc(S(=O)(=O)F)cc2Cl)c(Cl)c1`, the T/C is 117 % of control (endpoint: median survival time, dose: 35.0 mg/kg/injection, schedule: Q01DX013 (ip), vehicle: saline with Tween-80, higher = longer survival); 157 % of control (endpoint: median survival time, dose: 92.0 mg/kg/injection, schedule: Q01DX013 (ip), vehicle: saline with Tween-80, higher = longer survival); 44 % of control (endpoint: median tumor weight (est.), dose: 6.25 mg/kg/injection, schedule: Q07DX002 (ip), vehicle: saline, higher = larger tumour); 78 % of control under setting [1]; 1 % of control and 24 % of control and 26 % of control under setting [2].

Consider `CCC(C)C1NC(=O)C(CC(C)C)NC(=O)C(C(C)C)NC(=O)C2CSSCC(NC1=O)C(=O)N2` (configuration not stated) (cyclo(CCVLI); disulfide 1-2; configuration not given here), for which the T/C (endpoint: median tumor weight (est.), dose: 128.12 micrograms/kg/injection, schedule: Q07DX002 (ip), vehicle: Klucel (hydroxypropylcellulose) (HPC), higher = larger tumour) is 160 % of control and the T/C (endpoint: median tumor weight (est.), dose: 256.25 micrograms/kg/injection, schedule: Q07DX002 (ip), vehicle: Klucel (hydroxypropylcellulose) (HPC), higher = larger tumour) is 118 % of control.

As to `N=C1CCCS1`, the T/C under setting [2] is 101 % of control.

With `ClCCCN1CCCCC1CCl` (configuration not stated), the T/C (endpoint: median tumor weight (est.), dose: 0.78 mg/kg/injection, schedule: Q07DX002 (ip), vehicle: saline, higher = larger tumour) is 80 % of control and 86 % of control.

On to `O=C1N(Cl)C(=O)C(c2ccc(Cl)cc2)(c2ccc(Cl)cc2)N1Cl`, for which the T/C (endpoint: median tumor weight (est.), dose: 25.0 mg/kg/injection, schedule: Q07DX002 (ip), vehicle: saline with Tween-80, higher = larger tumour) is 87 % of control and 90 % of control and 100 % of control.

On to `[N-]=[N+]=CC(=O)CCC(N)C(=O)O` (configuration not stated), for which the T/C is 57 % of control (endpoint: median tumor weight (est.), dose: 0.78 mg/kg/injection, schedule: Q07DX003 (ip), vehicle: saline, higher = larger tumour); 48 % of control (endpoint: median tumor weight (est.), dose: 1.56 mg/kg/injection, schedule: Q07DX003 (ip), vehicle: saline, higher = larger tumour); 73 % of control (endpoint: median tumor weight (est.), dose: 3.13 mg/kg/injection, schedule: Q07DX003 (ip), vehicle: saline, higher = larger tumour); 10 % of control (endpoint: median tumor weight (est.), dose: 50.0 mg/kg/injection, schedule: Q07DX003 (ip), vehicle: saline, higher = larger tumour).

Turning to `CCOC(=O)Nc1cc2c(c(N)n1)N=C(CN(C)c1ccccc1)CN2`, the T/C reads like this: under setting [3], 88 % of control; under setting [4], 63 % of control and 68 % of control.

On to `CCOC(OCC)C(=O)OCC(=O)[C@]1(O)Cc2c(O)c3c(c(O)c2[C@@H](OC2CC(N)C(O)C(C)O2)C1)C(=O)c1c(OC)cccc1C3=O` (some centres not stated), for which the T/C reads like this: (endpoint: median tumor weight (est.), dose: 0.5 mg/kg/injection, schedule: Q07DX002 (ip), vehicle: water, higher = larger tumour) 85 % of control; (endpoint: median tumor weight (est.), dose: 2.0 mg/kg/injection, schedule: Q07DX002 (ip), vehicle: water, higher = larger tumour) 107 % of control; (endpoint: median tumor weight (est.), dose: 4.0 mg/kg/injection, schedule: Q07DX002 (ip), vehicle: water, higher = larger tumour) 88 % of control.

Consider `O=C1C=CC(=O)N1c1ccc(Cl)cc1`, for which the T/C by setting is: (endpoint: median tumor weight (est.), dose: 1.25 mg/kg/injection, schedule: Q07DX002 (ip), vehicle: Klucel (hydroxypropylcellulose) (HPC), higher = larger tumour) 32 % of control; (endpoint: median tumor weight (est.), dose: 10.0 mg/kg/injection, schedule: Q07DX002 (ip), vehicle: Klucel (hydroxypropylcellulose) (HPC), higher = larger tumour) 61 % of control and 73 % of control; (endpoint: median tumor weight (est.), dose: 20.0 mg/kg/injection, schedule: Q07DX002 (ip), vehicle: Klucel (hydroxypropylcellulose) (HPC), higher = larger tumour) 60 % of control and 67 % of control.

Regarding `[CH3][Sn]([CH3])([Cl])[S]CCN`, the T/C reads like this: (endpoint: median tumor weight (est.), dose: 12.5 mg/kg/injection, schedule: Q07DX002 (ip), vehicle: saline, higher = larger tumour) 71 % of control; under setting [5], 47 % of control; under setting [1], 90 % of control.

Regarding `C=C1C(=O)O[C@H]2/C=C(/C)C3=CC(=O)[C@@](C)(C[C@@H](OC(=O)/C(C)=C\C)C12)O3` (some centres not stated), the T/C (endpoint: median tumor weight (est.), dose: 3.12 mg/kg/injection, schedule: Q07DX002 (ip), vehicle: Klucel (hydroxypropylcellulose) (HPC), higher = larger tumour) was 63 % of control; the T/C (endpoint: median tumor weight (est.), dose: 6.25 mg/kg/injection, schedule: Q07DX002 (ip), vehicle: Klucel (hydroxypropylcellulose) (HPC), higher = larger tumour) is 95 % of control; the T/C (endpoint: median tumor weight (est.), dose: 12.5 mg/kg/injection, schedule: Q07DX002 (ip), vehicle: Klucel (hydroxypropylcellulose) (HPC), higher = larger tumour) is 58 % of control; the T/C under setting [3] is 79 % of control.

On to `O=C(O)Cc1cccc2c(=O)cc(-c3ccccc3)oc12`, for which the T/C was 124 % of control (endpoint: median tumor weight (est.), dose: 47.3 mg/kg/injection, schedule: Q03HX004 (ip), vehicle: clinical formulation, higher = larger tumour); 79 % of control under setting [4]; 46 % of control (endpoint: median tumor weight (est.), dose: 50.0 mg/kg/injection, schedule: Q07DX002 (ip), vehicle: sodium bicarbonate, higher = larger tumour); 89 % of control (endpoint: median tumor weight (est.), dose: 63.0 mg/kg/injection, schedule: Q03HX004 (ip), vehicle: clinical formulation, higher = larger tumour); 70 % of control (endpoint: median tumor weight (est.), dose: 63.0 mg/kg/injection, schedule: Q07DX002 (ip), vehicle: sodium bicarbonate, higher = larger tumour); 120 % of control (endpoint: median tumor weight (est.), dose: 63.0 mg/kg/injection, schedule: Q07DX002 (iv), vehicle: sodium bicarbonate, higher = larger tumour). Moreover, the T/C reads like this: (endpoint: median tumor weight (est.), dose: 84.0 mg/kg/injection, schedule: Q03HX004 (ip), vehicle: clinical formulation, higher = larger tumour) 19 % of control; (endpoint: median tumor weight (est.), dose: 84.0 mg/kg/injection, schedule: Q06HX002 (ip), vehicle: clinical formulation, higher = larger tumour) 80 % of control; (endpoint: median tumor weight (est.), dose: 84.0 mg/kg/injection, schedule: Q07DX002 (ip), vehicle: saline, higher = larger tumour) 103 % of control; (endpoint: median tumor weight (est.), dose: 84.0 mg/kg/injection, schedule: Q07DX002 (ip), vehicle: sodium bicarbonate, higher = larger tumour) 46 % of control; (endpoint: median tumor weight (est.), dose: 84.0 mg/kg/injection, schedule: Q07DX002 (iv), vehicle: sodium bicarbonate, higher = larger tumour) 122 % of control; (endpoint: median tumor weight (est.), dose: 100.0 mg/kg/injection, schedule: Q07DX002 (ip), vehicle: Klucel (hydroxypropylcellulose) (HPC), higher = larger tumour) 4 % of control. Further, the T/C runs as follows: (endpoint: median tumor weight (est.), dose: 100.0 mg/kg/injection, schedule: Q07DX002 (ip), vehicle: sodium bicarbonate, higher = larger tumour) 73 % of control; (endpoint: median tumor weight (est.), dose: 112.0 mg/kg/injection, schedule: Q01DX001 (ip), vehicle: clinical formulation, higher = larger tumour) 72 % of control; (endpoint: median tumor weight (est.), dose: 112.0 mg/kg/injection, schedule: Q06HX002 (ip), vehicle: clinical formulation, higher = larger tumour) 29 % of control; (endpoint: median tumor weight (est.), dose: 112.0 mg/kg/injection, schedule: Q07DX002 (ip), vehicle: clinical formulation, higher = larger tumour) 44 % of control; (endpoint: median tumor weight (est.), dose: 112.0 mg/kg/injection, schedule: Q07DX002 (ip), vehicle: saline, higher = larger tumour) 13 % of control; (endpoint: median tumor weight (est.), dose: 112.0 mg/kg/injection, schedule: Q07DX002 (ip), vehicle: sodium bicarbonate, higher = larger tumour) 90 % of control. Besides, the T/C is 100 % of control (endpoint: median tumor weight (est.), dose: 112.0 mg/kg/injection, schedule: Q07DX002 (iv), vehicle: sodium bicarbonate, higher = larger tumour); 22 % of control (endpoint: median tumor weight (est.), dose: 150.0 mg/kg/injection, schedule: Q01DX001 (ip), vehicle: clinical formulation, higher = larger tumour); 2 % of control (endpoint: median tumor weight (est.), dose: 150.0 mg/kg/injection, schedule: Q07DX002 (ip), vehicle: saline, higher = larger tumour); 67 % of control (endpoint: median tumor weight (est.), dose: 150.0 mg/kg/injection, schedule: Q07DX002 (ip), vehicle: sodium bicarbonate, higher = larger tumour); 15 % of control (endpoint: median tumor weight (est.), dose: 150.0 mg/kg/injection, schedule: Q07DX002 (iv), vehicle: sodium bicarbonate, higher = larger tumour); 42 % of control (endpoint: median tumor weight (est.), dose: 200.0 mg/kg/injection, schedule: Q07DX002 (ip), vehicle: sodium bicarbonate, higher = larger tumour). Further, the T/C (endpoint: median tumor weight (est.), dose: 267.0 mg/kg/injection, schedule: Q07DX002 (ip), vehicle: saline, higher = larger tumour) is 1 % of control.

Consider `CN1CCN(c2ccc3nc(-c4ccc5nc(-c6ccc(O)cc6)[nH]c5c4)[nH]c3c2)CC1`, for which the T/C is 119 % of control under setting [5]; 116 % of control under setting [1]; 70 % of control (endpoint: median tumor weight (est.), dose: 100.0 mg/kg/injection, schedule: Q07DX002 (ip), vehicle: saline, higher = larger tumour); 97 % of control under setting [2].

With `ClC(Cl)=C(Cl)Cl`, the T/C by setting is: (endpoint: median tumor weight (est.), dose: 28.0 mg/kg/injection, schedule: Q07DX002 (ip), vehicle: saline with Tween-80, higher = larger tumour) 88 % of control and 103 % of control; (endpoint: median tumor weight (est.), dose: 50.0 mg/kg/injection, schedule: Q07DX002 (ip), vehicle: other, higher = larger tumour) 79 % of control; (endpoint: median tumor weight (est.), dose: 56.0 mg/kg/injection, schedule: Q07DX002 (ip), vehicle: saline with Tween-80, higher = larger tumour) 79 % of control and 100 % of control; (endpoint: median tumor weight (est.), dose: 100.0 mg/kg/injection, schedule: Q07DX002 (ip), vehicle: other, higher = larger tumour) 109 % of control and 112 % of control; (endpoint: median tumor weight (est.), dose: 112.0 mg/kg/injection, schedule: Q07DX002 (ip), vehicle: saline with Tween-80, higher = larger tumour) 52 % of control; (endpoint: median tumor weight (est.), dose: 400.0 mg/kg/injection, schedule: Q07DX002 (ip), vehicle: other, higher = larger tumour) 91 % of control. Further, the T/C (endpoint: median tumor weight (est.), dose: 800.0 mg/kg/injection, schedule: Q07DX002 (ip), vehicle: other, higher = larger tumour) is 71 % of control.

Source of the values: PubChem BioAssay AID212 (DTP/NCI, 2004).
